Among the data in BindingDB's records for doi:10.7270/Q2M043S8 (University of Pittsburgh, 2006) are IC50 values, retold here.

What is called IC50 is the concentration at which inhibition is half-maximal. Lower therefore signals inhibition by little substance.

SMILES strings stand for the structures.

The experiment deals with T1, Dual specificity protein phosphatase 6 (Rattus norvegicus, UniProt Q64346).
T1 sequence (Q64346 whole entry): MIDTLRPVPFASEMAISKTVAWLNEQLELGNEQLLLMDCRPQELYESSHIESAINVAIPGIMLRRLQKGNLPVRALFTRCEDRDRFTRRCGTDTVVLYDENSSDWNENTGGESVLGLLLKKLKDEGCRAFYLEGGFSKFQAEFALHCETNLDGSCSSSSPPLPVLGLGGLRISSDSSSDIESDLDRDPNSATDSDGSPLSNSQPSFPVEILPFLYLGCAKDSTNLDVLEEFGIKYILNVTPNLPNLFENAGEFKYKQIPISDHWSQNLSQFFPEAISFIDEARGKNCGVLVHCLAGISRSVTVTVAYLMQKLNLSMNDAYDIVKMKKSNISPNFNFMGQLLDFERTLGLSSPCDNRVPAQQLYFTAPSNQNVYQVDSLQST
Nature of the experiment: MKP-3 phosphatase inhibition with catalase present, dose response, biochemical, rat DUSP6, catalase added, probe assessment (AID 564).
With `COCCCn1c(N)c(C(=O)NCCC(C)C)c2nc3ccccc3nc21` [MLS000041744], the 50% inhibitory concentration (IC50) was greater than 50 µM. The same measure for `Cc1ccc(C)n1-c1cccc(C(=O)O)c1`: greater than 50 µM; for `Cc1cc(C)n2c(SCC(=O)N3CCN(S(=O)(=O)c4ccc(Cl)cc4)CC3)nnc2n1` [1-[4-(4-chlorophenyl)sulfonyl-1-piperazinyl]-2-[(5,7-dimethyl-[1,2,4]triazolo[4,3-a]pyrimidin-3-yl)thio]ethanone]: greater than 50 µM; for `CCOC(=O)c1ccc2c(c1)C1C=CCC1C(C(=O)O)N2` (centres undefined) [MLS-0025126.0001]: greater than 50 µM. In turn, `O=C1C=Cc2ccccc2C1=O` [1,2-dihydronaphthalene-1,2-dione] yielded a concentration for half-maximal inhibition (IC50) greater than 50 µM. The same measure for `O=C1C=C(NCc2ccc(Cl)c(Cl)c2)CC1` [3-[(3,4-dichlorobenzyl)amino]cyclopent-2-en-1-one]: greater than 50 µM; for `CCCCNC(=O)c1c(N)n(CCCOC)c2nc3ccccc3nc12` [2-amino-N-butyl-1-(3-methoxypropyl)-3-pyrrolo[3,2-b]quinoxalinecarboxamide]: greater than 50 µM. Compound `CC(=O)[C@@H]1[C@@H]2C(=O)N(c3ccc(F)c(Cl)c3)C(=O)[C@@H]2C2c3ccccc3C=CN21` (some centres undefined) [MLS000040594] showed a half-inhibitory concentration (IC50) greater than 50 µM.

`Nc1c(N2CCCC2)cc(Cl)c2nonc12` [(7-chloro-5-pyrrolidino-benzofurazan-4-yl)amine] showed an IC50 greater than 50 µM. In the case of `N#Cc1c(N)sc(=S)c2c1CCN(Cc1ccccc1)C2` [3-Amino-7-benzyl-1-thioxo-5,6,7,8-tetrahydro-1H-thiopyrano[3,4-c]pyridine-4-carbonitrile] it was 47.9 µM. As for `O=C(OC1CCCCC1)c1ccc2c(c1)C1C=CCC1C(C(=O)O)N2` (centres undefined) [SMR000019385], the IC50 was greater than 50 µM. In the case of `CC(C)(C)N1C(=O)Cc2c1nc(N)c1c(N)nc(N3CCCCC3CO)c(C#N)c21` (centres undefined) [5,6-bis(azanyl)-3-tert-butyl-8-[2-(hydroxymethyl)piperidin-1-yl]-2-oxidanylidene-1H-pyrrolo[2,3-c][2,7]naphthyridine-9-carbonitrile] it was greater than 50 µM; in that of `CCOc1ccc2noc3c2c1C(=O)c1ccccc1-3` [MLS000106837], greater than 50 µM; in that of `CCn1nc(-c2ccccc2)nc2c(=O)n(C)c(=O)nc1-2` [1-Ethyl-6-methyl-3-phenyl-1H-pyrimido[5,4-e][1,2,4]triazine-5,7-dione], greater than 50 µM. In the case of `COc1ccc(Cn2c(C)nc3c(c2=O)c2nc4ccccc4nc2n3Cc2ccco2)cc1` [MLS000079944] it was 47.8 µM; in that of `COC(=O)c1ccccc1NC(=O)CN1C(=O)C2CCCN2c2ncc(Cl)cc21` (centres undefined) [MLS000094302], greater than 50 µM.

`Nc1nc2c(s1)CCc1c-2cnn1-c1ccccc1` [MLS000085948] came in with an IC50 greater than 50 µM.

Regarding `Cc1ccc(-c2csc(NC(=O)c3ccno3)n2)cc1` [MLS000081820], the IC50 is greater than 50 µM. In the case of `O=C1c2ccccc2-c2onc3ccc(NCCCn4ccnc4)c1c23` [SMR000044769] it was 47.6 µM.
